# Tested on: Mycolicibacterium fortuitum
# Experiment: Antibacterial activity against Mycobacterium fortuitum ATCC 6841 assessed as bacterial growth inhibition incubated for 72 hrs by CLSI protocol based micro-dilution method
# Format: functional
# Settings: not given
row,SMILES,MIC [µM]
1,CC(=O)NC[C@H]1CN(c2ccc(N3CCOCC3)c(F)c2)C(=O)O1 [LINEZOLID],23.7
2,NCC[C@H](O)C(=O)N[C@@H]1C[C@H](N)[C@@H](O[C@H]2O[C@H](CN)[C@@H](O)[C@H](O)[C@H]2O)[C@H](O)[C@H]1O[C@H]1O[C@H](CO)[C@@H](O)[C@H](N)[C@H]1O [AMIKACIN],3.41
3,CC[C@H]1OC(=O)[C@H](C)[C@@H](O[C@H]2C[C@@](C)(OC)[C@@H](O)[C@H](C)O2)[C@H](C)[C@@H](O[C@@H]2O[C@H](C)C[C@H](N(C)C)[C@H]2O)[C@](C)(OC)C[C@@H](C)C(=O)[C@H](C)[C@@H](O)[C@]1(C)O [CLARITHROMYCIN],1.34
4,CC(C)/N=c1\cc2n(-c3ccc(Cl)cc3)c3ccccc3nc-2cc1Nc1ccc(Cl)cc1 [CLOFAZIMINE],4.22
5,C[C@H]1c2cccc(O)c2C(=O)C2=C(O)[C@]3(O)C(=O)C(C(N)=O)=C(O)[C@@H](N(C)C)[C@@H]3[C@@H](O)[C@@H]21 [DOXYCYCLINE ANHYDROUS],0.56
6,Cc1cc(NS(=O)(=O)c2ccc(N)cc2)no1 [SULFAMETHOXAZOLE],126

# Tested on: Mycolicibacterium fortuitum
# Experiment: Antibacterial activity against Mycobacterium fortuitum ATCC 49404 assessed as bacterial growth inhibition incubated for 72 hrs by CLSI protocol based micro-dilution method
# Format: functional
# Settings: not given
row,SMILES,MIC [µM]
1,NCC[C@H](O)C(=O)N[C@@H]1C[C@H](N)[C@@H](O[C@H]2O[C@H](CN)[C@@H](O)[C@H](O)[C@H]2O)[C@H](O)[C@H]1O[C@H]1O[C@H](CO)[C@@H](O)[C@H](N)[C@H]1O [AMIKACIN],5.33

# Tested on: Mycolicibacterium fortuitum
# Experiment: Antibacterial activity against Mycobacterium fortuitum ATCC 6841 assessed as reduction in bacterial growth incubated for 72 hrs by Mueller-Hinton broth micro-dilution based assay
# Format: functional
# Settings: not given
row,SMILES,MIC [µM]
1,C=C[C@H](O)C#CC#CC/C=C\CCCCCCC [FALCARINOL],16.4
2,CCCCC/C=C\C/C=C\CCCCCCCC(=O)O [LINOLEIC ACID],14.3
3,CCCCCCCCCCC/C=C\C=C\C(O)CC(=O)O (stereo not given),0.11
4,CCCCCCCCCCCCCCCC(=O)O [PALMITIC ACID],2
5,CCCCCCCC/C=C\CCCCCCCC(=O)O [OLEIC ACID],56.6
6,C=C[C@@H](O)C#CC#C[C@@H](O)/C=C\CCCCCCC [FALCARINDIOL],30.4
7,C[C@@H](N)CCCCCC/C=C\CCCCCCCCN,44

# Tested on: Mycolicibacterium fortuitum
# Experiment: Antibacterial activity against Mycobacterium fortuitum assessed as reduction in bacterial growth
# Format: functional
# Settings: not given
row,SMILES,MIC [µM]
1,C[C@]12CC[C@@H]3c4ccc(OCCCCCCC[n+]5ccccc5)cc4CC[C@H]3[C@@H]1CCC2=O,3.81
2,CC(C)=CCC/C(C)=C/CNCCNC1C2CC3CC(C2)CC1C3 (stereo not given) [SQ109],3.02
3,CC(C)/C(=C/CN(C)C)CC[C@@H](C)[C@H]1CC[C@H]2C3=CC[C@H]4C[C@@H](N(C)C)CC[C@]4(C)[C@H]3CC[C@]12C,67.2

# Tested on: Mycolicibacterium fortuitum
# Experiment: Antibacterial activity against Mycobacterium fortuitum ATCC 6841 assessed as reduction in bacterial growth by micro-dilution method
# Format: functional
# Settings: not given
row,SMILES,MIC [µM]
1,C=C1[C@H]2CC[C@@H]3[C@H]2C(C)(C)CCC[C@]13C [LONGIFORENE],> 0.63
2,C=C1[C@@H](C)CC[C@@]2(C)[C@H]1CC=C(C=O)[C@]2(O)C=O,64.4
3,C=C1C[C@@]23CC[C@H]4[C@@](C)(CCC[C@@]4(C)C=O)[C@@H]2CC[C@@H]1C3,51.6
4,Cc1cc(O)c([C@]2(C)CC[C@@H]3C[C@@]32C)cc1Br,42.3
5,C=C[C@@](C)(O)CC/C=C(/C)CCC=C(C)C [NEROLIDIOL],44.5
6,CC(C)c1c(O)ccc2c1CC[C@H]1C(C)(C)CCC[C@]21C [TOTAROL],14

# Tested on: Mycolicibacterium fortuitum
# Experiment: Antimycobacterial activity against Mycobacterium fortuitum ATCC 6841 assessed as reduction in microbial growth
# Format: functional
# Settings: not given
row,SMILES,MIC [µM]
1,O=c1cc(-c2ccc(O)c(O)c2)oc2cc(O)cc(O)c12 [LUTEOLIN],0.12
2,O=c1cc(-c2ccc(O)cc2)oc2c([C@@H]3O[C@H](CO)[C@@H](O)[C@H](O)[C@H]3O)c(O)cc(O)c12,69.4

# Tested on: Mycolicibacterium fortuitum
# Experiment: Antimycobacterial activity against Mycobacterium fortuitum NCTC 10394 assessed as reduction in microbial growth incubated for 72 hrs by resazurin dye based broth microdilution method
# Format: functional
# Settings: not given
row,SMILES,MIC [µM]
1,CC(C)CCn1cc(NC(=O)c2ccc3[nH]c(C(=O)Nc4cc(C(=O)Nc5ccc(C(=O)NCCN6CCN(C)CC6)n5C)n(CCC(C)C)c4)cc3c2)cc1C(=O)Nc1cc(C(=O)NCCN2CCN(C)CC2)n(C)c1,9.5
2,C1=C2CCCC/C=C\C=C\CCN3CC[C@@H]4[C@H](CCCCCC/C=C\C=C/CCN(C2)C[C@H]14)C3 [HALICYCLAMINE A],54

# Tested on: Mycolicibacterium fortuitum
# Experiment: Antimycobacterial activity against Mycobacterium fortuitum ATCC 6841 assessed as reduction in microbial growth incubated for 72 hrs by resazurin dye based broth microdilution method
# Format: functional
# Settings: not given
row,SMILES,MIC [µM]
1,COc1c(N2CCN(c3ccc(N4C[C@H](CNC(C)=O)OC4=O)cc3F)CC2)cnc2nccn12,2.07
2,COc1ncccc1Nc1cc2nc3ccccc3n(-c3ccc(OC(F)(F)F)cc3)c-2c/c1=N\C1CCC(OC)CC1 (stereo not given),1.17
3,CC(=O)NC[C@H]1CN(c2ccc(-c3ccc(-c4nnnn4C)nc3)c(F)c2)C(=O)O1,0.61
4,O=c1ccc2ncc(=O)n3c2n1C[C@H]3CN1CCC(NCc2cc3c(cn2)OCCC3)CC1 [GEPOTIDACIN],4.46
5,O=[N+]([O-])c1ccc(C2=NOC(c3ccc(N4CCC(Oc5ccc(OC(F)(F)F)cc5)CC4)cc3)C2)o1 (stereo not given),12.1
6,CC(=O)NC[C@H]1CN(c2ccc(N3CCN(c4ccc5nccn5n4)CC3)c(F)c2)C(=O)O1,2.2
7,COc1ncc(-c2ccc(Cl)cc2)cc1[C@@H](c1ccccc1)[C@@](O)(CCN(C)C)c1cccc2ccccc12 [SUDAPYRIDINE],15
8,COc1cc([C@](O)(CCN(C)C)[C@@H](c2cc3cc(Br)ccc3nc2OC)c2ccnc(OC)c2OC)cc(OC)n1,0.9

# Tested on: Mycolicibacterium fortuitum
# Experiment: Antimycobacterial activity against Mycobacterium fortuitum PCM 672 assessed as reduction in microbial growth incubated for 72 hrs by resazurin dye based broth microdilution method
# Format: functional
# Settings: not given
row,SMILES,MIC [µM]
1,Cc1noc(N)c1C(=O)N/N=C/c1ccncc1,0.14
2,COc1ccc(/C=N/NC(=O)c2c(C)noc2N)cc1,0.24
3,Cc1noc(N)c1C(=O)N/N=C/c1ccc([N+](=O)[O-])cc1,51.1
4,Cc1noc(N)c1C(=O)N/N=C/c1ccc(Cl)c(Cl)c1,0.21
5,Cc1noc(N)c1C(=O)N/N=C/c1ccc(Cl)cc1Cl,55.3
6,Cc1noc(N)c1C(=O)N/N=C/c1ccc(C(F)(F)F)cc1,0.21

# Tested on: Mycolicibacterium fortuitum
# Experiment: Antimycobacterial activity against Mycobacterium fortuitum ATCC 19542 assessed as bacterial growth inhibition incubated for 72 hrs by resazurin dye based broth microdilution method
# Format: functional
# Settings: not given
row,SMILES,MIC [µM]
1,C#CCNC(=O)C1=CC(c2cc(Br)ccc2F)N2N=CNC2=N1 (stereo not given),2.65
2,CCN(C(=O)C1=CC(c2cc(Br)ccc2F)N2N=CNC2=N1)c1ccccc1 (stereo not given),2.26
3,CC(NC(=O)C1=CC(c2cc(Br)ccc2F)N2N=CNC2=N1)c1ccccc1 (stereo not given),2.26

# Tested on: Mycolicibacterium fortuitum
# Experiment: Antibacterial activity against Mycobacterium fortuitum ATCC 6841 assessed as bacterial growth inhibition incubated for 4 days by CLSI protocol based broth micro-dilution method
# Format: functional
# Settings: ATCC 6841, 96 h, time 4 day
row,SMILES,MIC [µM]
1,CC1(C)CCC(Cc2cc(O)c(-c3ccccc3)c(=O)[nH]2)CC1,0.13

# Source: ChEMBL document CHEMBL6134767, “Advances in antibacterial agents for Mycobacterium fortuitum” (2025)
